Several values for one entry are separate records, joined by “and”; a condition that tells them apart may be missing. Equal values may be shown once.
Assays:
C57BL/6 mice [1] = test: 5′-GNTI-induced scratching; format: in vivo; conditions: for number of scratches induced: 30 μg/kg s.c.
rKOR [2] = biological target: T1, rKOR (Rattus norvegicus, UniProt P34975); conditions: rKOR expressing HEK293; cited from earlier work
hKOR [3] = biological target: T2, hKOR (Homo sapiens, UniProt P41145); conditions: hKOR-expressing HEK293 cells; cited from earlier work
C57BL/6 mice [4] = test: Warm-water tail-withdrawal assay; format: in vivo; conditions: for analgesic response (increase in tail withdrawal latency): 30 min post-injection, wild type C57BL/6; for change in tail withdrawal latency after norBNI pretreatment: norBNI 10 mg/kg 3–5 days prior
rMOR = rMOR (Rattus norvegicus, UniProt P33535); test: ERK1/2 phosphorylation; format: cell-based
C57BL/6 mice [5] = test: Locomotor activity; conditions: 50 μg/kg, n=3; no impairment vs saline (p=0.73)
hKOR [6] = biological target: T2, hKOR; test: Signaling bias, ERK1/2; format: cell-based; conditions: ERK1/2 vs p38 phosphorylation, U50,488 as reference
C57BL/6 mice [7] = test: Acute cross-tolerance to U50,488 in warm-water tail-withdrawal assay; format: in vivo; conditions: 1 mg/kg i.p. pretreatment
[8] = system: untransfected HEK293 cells; test: ERK1/2 and p38 phosphorylation in untransfected HEK293 cells; format: cell-based; conditions: untransfected HEK293, 1 μM, 5 min (pERK) or 30 min (pp38), n=3
rKOR [9] = biological target: T1, rKOR; test: Signaling bias, ERK1/2; format: cell-based, rodent; conditions: ERK1/2 vs p38 phosphorylation, U50,488 as reference

T2 sequence (P41145 whole entry): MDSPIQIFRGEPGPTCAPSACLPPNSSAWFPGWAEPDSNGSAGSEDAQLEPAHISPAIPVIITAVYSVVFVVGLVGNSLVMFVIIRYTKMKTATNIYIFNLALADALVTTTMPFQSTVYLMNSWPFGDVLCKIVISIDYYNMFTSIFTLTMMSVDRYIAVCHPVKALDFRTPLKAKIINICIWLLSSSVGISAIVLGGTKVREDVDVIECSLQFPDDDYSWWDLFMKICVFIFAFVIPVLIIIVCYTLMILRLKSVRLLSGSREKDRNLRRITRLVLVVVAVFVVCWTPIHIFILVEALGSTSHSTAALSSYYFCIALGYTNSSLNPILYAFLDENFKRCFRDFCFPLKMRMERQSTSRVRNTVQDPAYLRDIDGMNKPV
T1 sequence (P34975 whole entry): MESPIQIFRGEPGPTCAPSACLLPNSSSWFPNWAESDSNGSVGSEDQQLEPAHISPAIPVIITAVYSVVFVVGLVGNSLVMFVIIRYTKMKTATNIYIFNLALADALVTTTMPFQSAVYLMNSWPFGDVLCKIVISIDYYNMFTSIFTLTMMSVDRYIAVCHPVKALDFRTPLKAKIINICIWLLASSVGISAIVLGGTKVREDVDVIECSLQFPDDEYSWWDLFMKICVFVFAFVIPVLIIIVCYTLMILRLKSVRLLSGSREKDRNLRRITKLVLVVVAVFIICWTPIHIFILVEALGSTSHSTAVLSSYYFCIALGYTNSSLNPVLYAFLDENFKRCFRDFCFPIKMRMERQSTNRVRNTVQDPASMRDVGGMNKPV
rMOR, sequence (P33535 whole entry): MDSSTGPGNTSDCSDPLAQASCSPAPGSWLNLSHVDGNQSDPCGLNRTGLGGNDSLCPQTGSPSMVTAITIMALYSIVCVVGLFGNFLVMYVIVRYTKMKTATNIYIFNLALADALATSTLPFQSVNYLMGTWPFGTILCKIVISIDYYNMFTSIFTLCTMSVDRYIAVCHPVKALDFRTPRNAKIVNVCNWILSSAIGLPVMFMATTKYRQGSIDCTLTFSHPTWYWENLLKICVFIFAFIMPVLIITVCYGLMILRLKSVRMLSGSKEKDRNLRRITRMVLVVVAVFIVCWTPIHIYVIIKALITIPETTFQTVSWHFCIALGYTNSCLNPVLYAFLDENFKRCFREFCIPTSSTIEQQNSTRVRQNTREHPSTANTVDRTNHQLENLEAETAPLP

Question: Which results are given for `NC(N)=Nc1ccc2[nH]c3c(c2c1)C[C@@]1(O)[C@H]2Cc4ccc(O)c5c4[C@@]1(CCN2CC1CC1)[C@H]3O5` [5′-GNTI]?
Answer: number of scratches induced (C57BL/6 mice [1]; KOR−/− mice, n=8): 550 ± 84 times in 30 min; number of scratches induced (C57BL/6 mice [1]; wild type mice, n=10): 566 ± 60 times in 30 min

Question: Which “signaling bias (in words)” value (rKOR [2]) does the source give for `Oc1ccc2c(c1)[C@@]13CCCC[C@@]1(O)[C@@H](C2)N(CC1CCC1)CC3` [Butorphanol] here?
Answer: Its value is “G protein biased”.

Question: What about the “signaling bias (in words)” value (hKOR [3]) of the same molecule?
Answer: Its value is “p38-biased”.

Question: Which “analgesic response (increase in tail withdrawal latency)” value (C57BL/6 mice [4]; 50 μg/kg i.p.) does the source give for `CN(C(=O)/C=C/c1ccoc1)[C@@H]1CC[C@@]2(O)[C@H]3Cc4ccc(O)c5c4[C@@]2(CCN3CC2CC2)[C@H]1O5` [Nalfurafine, (2E)-N-[(5α,6β)-17-(cyclopropylmethyl)-3,14-dihydroxy-4,5-epoxymorphinan-6-yl]-3-(3-furyl)-N methylacrylamide] here?
Answer: The value was 1.5 ± 0.7 s.

Question: What about the “change in tail withdrawal latency after norBNI pretreatment” value (C57BL/6 mice [4]; 50 μg/kg) of the same molecule?
Answer: Its value is 0.6 ± 0.1 s.

Question: What about the “analgesic response (increase in tail withdrawal latency)” value (C57BL/6 mice [4]; 150 μg/kg i.p.) of the same molecule?
Answer: Its value is 1.7 ± 0.4 s.

Question: And the “change in tail withdrawal latency after norBNI pretreatment” value (C57BL/6 mice [4]; 150 μg/kg)?
Answer: The value was 0.7 ± 0.2 s.

Question: And the “5′-GNTI-induced scratching after pretreatment” value (“5′-GNTI-induced scratching” below) (C57BL/6 mice [1]; 20 μg/kg s.c. 20 min prior to 5′-GNTI, wild type C57BL/6, n=10, not significant)?
Answer: The value was 556 ± 67 scratches in 30 min.

Question: And the “5′-GNTI-induced scratching” value (C57BL/6 mice [1]; 50 μg/kg s.c. 20 min prior to 5′-GNTI 30 μg/kg, KOR−/− mice, n=8, not significant)?
Answer: The value was 580 ± 16 times in 30 min.

Question: And the “5′-GNTI-induced scratching” value (C57BL/6 mice [1]; 50 μg/kg s.c. 20 min prior to 5′-GNTI 30 μg/kg, MOR−/− mice, n=8)?
Answer: Its value is 99 ± 40 times in 30 min.

Question: What about the “5′-GNTI-induced scratching” value (C57BL/6 mice [1]; 50 μg/kg s.c. 20 min prior to 5′-GNTI 30 μg/kg, wild type, n=9) of the same molecule?
Answer: The value was 241±33 times in 30 min.

Question: And the EC50 (rMOR)?
Answer: The EC50 was 7.9 nM.

Question: And the “general locomotor activity, distance moved over 30 min” value (C57BL/6 mice [5])?
Answer: Its value is 3531 ± 1215 cm.

Question: And the “ΔΔlog(RA) Mean (SEM)” value (hKOR [6])?
Answer: The value was 3.2 (1.02).

Question: What about the “cross-tolerance: effect of pretreatment on U50,488-induced analgesia” value (C57BL/6 mice [7]; 3 h before U50,488 15 mg/kg i.p.) of the same molecule?
Answer: The value was “significantly decreased U50,488-induced analgesia”.

Question: What about the “cross-tolerance: effect of pretreatment on U50,488-induced analgesia” value (C57BL/6 mice [7]; 24 h before U50,488 15 mg/kg i.p.) of the same molecule?
Answer: The value was “lack of residual analgesic tolerance”.

Question: And the “increase in ERK1/2 or p38 phosphorylation” value [8]?
Answer: The value was “No significant increase”.

Question: What about the Bias factor (rKOR [9]) of the same molecule?
Answer: Its Bias factor is 7 and 7.2.

Question: What about the “ΔΔlog(RA) Mean (SEM)” value (rKOR [9]) of the same molecule?
Answer: Its value is 1.15 (0.74).

Question: Which results are given for `CC(C)=CCN1CCC2(C)c3cc(O)ccc3CC1C2C` (stereo not shown) [Pentazocine]?
Answer: signaling bias (in words) (rKOR [2]): unbiased; signaling bias (in words) (hKOR [3]): p38-biased; Bias factor (hKOR [6]): 0.62; ΔΔlog(RA) Mean (SEM) (hKOR [6]): −0.20 (0.78); Bias factor (rKOR [9]): 1.4; ΔΔlog(RA) Mean (SEM) (rKOR [9]): 0.14 (0.79)

Question: Which “effect on U50,488-mediated increase in withdrawal latency” value (C57BL/6 mice [4]; norBNI 10 mg/kg 3–5 days prior to U50,488, p < 0.01) does the source give for `Oc1ccc2c3c1O[C@H]1c4[nH]c5c(c4C[C@@]4(O)[C@@H](C2)N(CC2CC2)CC[C@]314)C[C@@]1(O)[C@H]2Cc3ccc(O)c4c3[C@@]1(CCN2CC1CC1)[C@H]5O4` [norBNI, norbinaltorphimine] here?
Answer: The value was “blocked”.

Question: And the “effect on nalfurafine-mediated increase in withdrawal latency” value (C57BL/6 mice [4]; norBNI 10 mg/kg 3–5 days prior to nalfurafine, p < 0.05)?
Answer: The value was “blocked”.

Source: publication PMC5779083 (Cellular signalling, 2017)
